The text below walks through data of patent US20200016155A1, “COMPOSITIONS AND TREATMENT OF HEART DEFICIENCY IN NON-HUMAN ANIMALS” (CEVA SANTE ANIMALE, priority 2007, published 2020).

For one data set, the system named is human patient. To be noted: cited from earlier work.
Data set [1] deals with aldosterone effect on log([Na+]urinary×10/[K+]urinary). As to the kind of experiment: Anti-aldosterone activity model (Hofman): urinary log([Na+]x10/[K+]) in dogs given aldosterone. The conditions noted are these: for inhibition of the effect of aldosterone on log ([Na+]urinary×10/[K+]urinary): first 6 hours and 12 hours after dosage. The class given is in vivo, dog. How it is done: The model for assessing the anti-aldosterone activity as described by Hofman L. M et al. (1975, The Journal of Pharmacology and Experimental Therapeutics. 194, 450-456) was used. […] A preliminary study was performed in order to determining the ED80 value for the natriuretic effect of aldosterone on its own. […] An elimination period of at least 48 hours was left between each administration.
The dogs described above were allocated to different treatment groups (A, B, C, D, and E) and a rest period was left between treatments.
A negative control group A only received the pharmaceutical excipient. The positive control group B only received 3 μg/kg of aldosterone. […] 200 g food was then given immediately after treatment.
The tubes were centrifuged rapidly at 1500 rpm for 10 minutes (at a temperature of +4° C.±2° C.), and the plasma was distributed in two propylene tubes (1.2 mL). The samples were frozen and kept in the dark at approx. −80° C. On the day of the fest, the bladders of the animals were emptied by catherisation, then 6 and 24 hours after treatment. Also, the urine was collected during the time periods ranging from T0-T6h; T6h-T12h and T12h-T24h.
The sodium and potassium contents in urines were determined using […]. […] According to this method 500 μL plasma were mixed with ethyl acetate (80/20,V/V) as solvents. […] The compounds and the internal standard (i.e. methyl-testosterone) were separated on a Kromasil C18 column. The quantification levels were 10 μg/L for all compounds within +/−14% variation.
E0, Elog ({Na+)urinary×10/[K+}) max dose and ED50 were obtained by nonlinear regression, and n is the Hill coefficient describing the dose effect relation.

Data set [2] can be described thus: Plasmatic potassium (kaliemia) measurements during the clinical studies. The class given is in vivo, dog. How it is done:
The plasmatic potassium concentrations (mmol/L) were measured during the treatments. […] Only sporadic case of low or moderate hyperkaliemia could be observed and these events were transient. Indeed, these hyperkaliemia events could only be observed a couple of times during examinations, and some of them were present on day D1, before the beginning of the treatment.

Data set [3] in a line: Pharmacokinetic study with 22-14C spironolactone, monkey. To be noted: monkeys, after 4 hour oral administration. The class given is in vivo.
Data set [4] deals with patients affected by severe heart failure. To be noted: 25 mg spironolactone with CEI, ansa diuretics, sometimes digoxin; 822 patients; cited from earlier work.
Data set [5] deals with dogs affected by heart failure. As to the kind of experiment: Multicentre randomised double-blind placebo-controlled clinical studies in dogs affected by heart failure. Type of data set: in vivo, dog. To be noted: group of dogs on spironolactone. How it is done:
Multicentre, randomised, double-blind placebo-controlled clinical studies were conducted.
For gauging the effects of the treatment, both groups were examined five times, i.e., on the first day of treatment (D1), then on the 84th day (D84), […], 252nd day (D252) and 336th day (D336). This examination consisted of a clinical examination of the dogs, urine and blood analyses, and a radiograph. Moreover, an echocardiograph was taken on days D1, D168 and D336.
Also, the effects of the treatment were assessed on the symptoms such as cough and mobility, as well as on the prevention of symptoms such as dyspnoea, pulmonary edema, and tolerance to effort.

The nature of data set [6]: Pharmacokinetic study with 22-14C spironolactone, rat. To be noted: rats, after 4 hour oral administration. Type of data set: in vivo.
Data set [7] is described as follows: Pharmacokinetic study with 22-14C spironolactone, dog. The class given is in vivo. The conditions noted are these: dogs, after 4 hour oral administration.

The structures appear in SMILES notation. Like-named read-outs stand apart in the source and are kept apart here.

For `CC(=O)S[C@@H]1CC2=CC(=O)CC[C@]2(C)[C@H]2CC[C@@]3(C)[C@@H](CC[C@@]34CCC(=O)O4)[C@H]12` [spironolactone, 7α-acetylthio-3-oxo-17α-pregn-4-ene-21,17-carbolactone], the “Therapeutic effect in human” value in the data set on human patient (12.5 mg/day), in the data set on human patient (25 mg/day), in the data set on human patient (50 mg/day) and with human patient (75 mg/day) was “Significant reduction in morbidity/” in each case. Besides, the figures for the natriuretic responses entry in data set [1] (0.8 mg/kg), in data set [1] (2 mg/kg) and in data set [1] (8 mg/kg) were “no effect on certain dogs”, “completely reversed” and “other increases in the elimination of Na were observed”, respectively. For the same compound, the “inhibition of the effect of aldosterone on log ([Na+]urinary×10/[K+]urinary)” value in data set [1] (2 mg/kg) and in data set [1] (8 mg/kg) was “complete reversal of the effect” in each case. In data set [1] (dose 0.8 mg/kg), the “E(0.8 mg/kg)−E0” value is recorded as 0.3233. The “restoring of the effect” value in data set [1] (dose 0.8 mg/kg) is given as 57%; in data set [1] (dose approx. 2 mg/kg), 88%. Further, the “E(2 mg/kg)” value in data set [1] (dose approx. 2 mg/kg) was 0.4933. For the same compound, the “log ([Na+]urinary×10/[K+]urinary), average” value in data set [1] (urine collected 0 to 6 hours after administration of spironolactone, from 0.70±0.22) is listed as 1.14±0.18. Further, in data set [2] (2 mg/kg/day, dogs), the variation in kaliemia result is reported as “did not cause any variation in kaliemia or only low transient variations in kaliemia”. The “Low and transient hyperkaliemia (5.9 to 6.4 mmol/L), cases” value in data set [2] (2-month clinical study (4 analyses)) was determined as 3; in data set [2] (3-month clinical study (6 analyses)), 5; in data set [2] (12-month clinical study (5 analyses)), 3. Also, the “progression of average plasmatic potassium (kaliemia)” value in data set [2] (FIG. 9, spironolactone 2 mg/kg/day + CEI) is on record as “stable kaliemia”. Besides, the plasma radioactivity percentage turned out to be 33% in data set [3], 66% in data set [6] and 76% in data set [7]. In data set [4], the “dead in the spironolactone group, percentage” value is reported as 35%. In addition, the “number of dead in the spironolactone group” value in data set [4] is given as 284. For the same compound, the clinical symptoms result in data set [5] was “improved symptoms such as cough and mobility”.

Consider `C[C@]12CCC(=O)C=C1CC[C@@H]1[C@@H]2[C@@H](O)C[C@]2(C=O)[C@@H](C(=O)CO)CC[C@@H]12` [aldosterone], for which the “E0 (control group)” value in data set [1] (basic effect after aldosterone on its own (positive control), 0 to 6 hours) is reported as 0.527.
